The source of these data is article PMC3914206.

In experiment [1] the target is T1, panel of 442 kinases (Homo sapiens, UniProt Q96BR1).
T1 construct: purchased KINOMEscan
T1 sequence (Q96BR1 1-496): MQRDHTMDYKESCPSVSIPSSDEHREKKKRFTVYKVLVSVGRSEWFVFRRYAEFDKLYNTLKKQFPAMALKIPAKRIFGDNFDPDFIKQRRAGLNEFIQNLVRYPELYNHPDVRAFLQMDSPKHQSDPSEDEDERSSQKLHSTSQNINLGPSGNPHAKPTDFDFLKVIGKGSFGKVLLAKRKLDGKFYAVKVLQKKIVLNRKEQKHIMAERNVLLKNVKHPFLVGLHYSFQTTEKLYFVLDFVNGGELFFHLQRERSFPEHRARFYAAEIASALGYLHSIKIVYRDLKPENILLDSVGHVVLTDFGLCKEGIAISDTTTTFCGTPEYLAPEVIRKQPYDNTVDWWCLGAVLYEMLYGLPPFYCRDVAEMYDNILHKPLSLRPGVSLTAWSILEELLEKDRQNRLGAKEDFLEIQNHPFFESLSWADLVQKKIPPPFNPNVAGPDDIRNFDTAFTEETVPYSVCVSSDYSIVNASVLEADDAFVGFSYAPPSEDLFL
The experiment is classed as binding. The conditions noted are these: kinase SGK3; compound concentration 10 µM. The source says: (§1) We assessed the selectivity of members of this scaffold using the KINOMEscan methodology across a near comprehensive panel of 442 kinases [[18,27]].

For experiment [2], the target named is T2, panel of 442 kinases (Homo sapiens, UniProt Q9H2G2).
T2 construct: purchased KINOMEscan
The experiment is classed as binding. The conditions noted are these: kinase SLK; compound concentration 10 µM.
Description: as §1

T2 sequence (Q9H2G2 whole entry): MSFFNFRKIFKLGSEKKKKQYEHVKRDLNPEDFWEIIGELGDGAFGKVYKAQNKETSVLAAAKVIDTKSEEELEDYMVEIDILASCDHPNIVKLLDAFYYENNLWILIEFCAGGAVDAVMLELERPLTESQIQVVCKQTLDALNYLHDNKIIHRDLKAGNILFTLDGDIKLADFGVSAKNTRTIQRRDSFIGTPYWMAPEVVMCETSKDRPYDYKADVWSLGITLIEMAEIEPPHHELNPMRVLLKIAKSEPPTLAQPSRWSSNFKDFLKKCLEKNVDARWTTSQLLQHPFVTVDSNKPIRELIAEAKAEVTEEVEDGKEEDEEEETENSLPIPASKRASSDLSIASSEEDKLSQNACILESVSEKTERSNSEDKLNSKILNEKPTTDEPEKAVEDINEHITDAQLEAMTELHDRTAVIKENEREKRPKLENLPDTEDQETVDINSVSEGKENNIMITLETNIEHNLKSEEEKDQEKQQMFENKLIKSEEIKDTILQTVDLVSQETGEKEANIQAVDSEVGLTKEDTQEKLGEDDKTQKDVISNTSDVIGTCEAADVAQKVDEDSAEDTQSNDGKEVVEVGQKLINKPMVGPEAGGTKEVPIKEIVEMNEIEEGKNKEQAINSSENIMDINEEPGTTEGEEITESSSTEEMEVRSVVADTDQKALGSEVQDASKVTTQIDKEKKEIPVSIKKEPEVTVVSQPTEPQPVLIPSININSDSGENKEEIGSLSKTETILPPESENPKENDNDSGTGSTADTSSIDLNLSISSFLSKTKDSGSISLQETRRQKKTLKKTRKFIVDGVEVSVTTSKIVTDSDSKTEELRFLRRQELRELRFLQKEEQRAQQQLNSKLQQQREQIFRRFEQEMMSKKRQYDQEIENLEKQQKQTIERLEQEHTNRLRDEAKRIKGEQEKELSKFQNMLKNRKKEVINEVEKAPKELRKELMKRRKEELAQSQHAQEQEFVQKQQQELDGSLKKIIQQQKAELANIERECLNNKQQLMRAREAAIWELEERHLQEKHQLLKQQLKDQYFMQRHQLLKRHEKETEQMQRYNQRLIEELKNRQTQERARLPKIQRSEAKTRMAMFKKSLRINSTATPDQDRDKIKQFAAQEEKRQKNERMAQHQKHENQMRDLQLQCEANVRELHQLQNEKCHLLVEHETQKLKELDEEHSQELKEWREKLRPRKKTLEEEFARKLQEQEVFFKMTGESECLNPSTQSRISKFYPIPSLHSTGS

`COc1cc(C(=O)N2CCC(N3CCN(C)CC3)CC2)ccc1Nc1ncc2c(n1)N(C1CCCC1)c1ccccc1C(=O)N2C` [Compound 25, 11-cyclopentyl-2-((2-methoxy-4-(4-(4-methylpiperazin-1-yl)piperidine-1-carbonyl)phenyl)amino)-5-methyl-5H-benzo[e]pyrimido[5,4-b][1,4]diazepin-6(11H)-one]: the “% Ctrl, SGK3” value at panel of 442 kinases [1] is given as 100 % Ctrl. The “% Ctrl, SLK” value on panel of 442 kinases [2] amounted to 100 % Ctrl.
On to `COc1cc(C(=O)N2CCC(N3CCN(C)CC3)CC2)ccc1Nc1ncc2c(n1)N1CCc3cccc(c31)C(=O)N2C` [Compound 24], for which the “% Ctrl, SGK3” value on panel of 442 kinases [1] was determined as 100 % Ctrl. In addition, on panel of 442 kinases [2], the “% Ctrl, SLK” value turned out to be 49 % Ctrl.
On the same counts, the results for `COc1cc(C(=O)N2CCC(N3CCN(C)CC3)CC2)ccc1Nc1ncc2c(n1)N(C)c1ccccc1C(=O)N2C` [15 (LRRK2-IN-1)] are 95 % Ctrl and 100 % Ctrl.
Consider `CCOc1cc(C(=O)N2CCC(N3CCN(C)CC3)CC2)ccc1Nc1ncc2c(n1)N(C1CCCC1)c1ccccc1C(=O)N2C` [Compound 26], for which the “% Ctrl, SGK3” value on panel of 442 kinases [1] turned out to be 83 % Ctrl. Moreover, the “% Ctrl, SLK” value at panel of 442 kinases [2] is given as 100 % Ctrl.
